The values that follow come from ChEMBL document CHEMBL4024736, “Recent progress on the treatment of Ebola virus disease with Favipiravir and other related strategies” (Bioorg Med Chem Lett, 2017).

For assay [1], the system named is Ebolavirus. Description: Antiviral activity against Ebolavirus assessed as reduction in viral titer. Format: functional. Conditions: Orthoebolavirus.
Assay [2] in a line: Antiviral activity against Respiratory syncytial virus A2 infected in Hep2 cells. Conditions: human respiratory syncytial virus, HEp-2. Format: functional, cell-based.
The subject of assay [3] is Ebolavirus. Description: Antiviral activity against Ebola virus Mayinga Zaire 1976 infected in IFNAR-/- C57BL/6 mouse at 300 mg/kg, po administered twice daily measured up to 6 days post infection. Format: functional.
In assay [4] the test system is Ebolavirus. Description: Antiviral activity against Ebolavirus E718 infected in A129 interferon alpha/beta receptor knockout immunodeficient mouse assessed as survival rate at 150 mg/kg, po administered twice daily for 14 days measured after 2 weeks post last dose relative to control. The assay is classed as functional. The conditions noted are these: Orthoebolavirus, 336 h.

Assay [5] can be described thus: Antiviral activity against Foot-and-mouth disease virus O/JPN/2000 by plaque reduction assay. The assay is classed as functional.
Assay [6] concerns Ebolavirus. The assay is described as follows: Antiviral activity against Ebolavirus E718 infected in Vero E6 cells assessed as effective dose after 6 days by neutral red stain based microscopic method. Format: functional, Vero C1008.
In assay [7] the test system is Ebolavirus. Description: Antiviral activity against Ebola virus Mayinga Zaire 1976 infected in IFNAR-/- C57BL/6 mouse assessed as survival at 300 mg/kg, po administered twice daily for 13 days measured after 3 weeks. Format: functional. The conditions noted are these: Orthoebolavirus.
The test system of assay [8] is Ebolavirus. Description: Antiviral activity against Ebola virus Mayinga Zaire 1976 infected in IFNAR-/- C57BL/6 mouse assessed as biochemical correlates of disease at 300 mg/kg, po administered twice daily. Format: functional.

Each structure is given as a SMILES string. In brackets after ≈: the same amount, converted by molar mass.

As usually defined, the IC50 is the concentration that gives 50% inhibition. For orientation: EC50 means the concentration that produces a half-maximal response. Higher therefore signals lower potency in that assay. Take `NC(=O)c1nc(F)cnc1O` [FAVIPIRAVIR]: the IC50 in the assay with Ebolavirus [1] stood at 67 µM; in assay [2] it was 41 mg/L (≈ 261 µM). For the same compound, the Activity stood at 100% in the assay on Ebolavirus [3] and 20% in the assay with Ebolavirus [8]. Moreover, the survival at 150 mg/kg in the assay with Ebolavirus [4] came out at 100%. The same compound showed an EC50 in assay [5] of 12 µM. In the assay with Ebolavirus [6], the ED was found to be 400 µM. Besides, the survival at 300 mg/kg in the assay with Ebolavirus [7] is 100%.
